From publication doi:10.1101/2025.11.04.686469, “Discovery of Host-Directed Small Molecules with Broad Anti-Leishmanial Efficacy” (bioRxiv, 2025)

Experiments:
[1] = tested on: intracellular L. donovani amastigotes; test: Luminescent-based evaluation of intracellular anti-leishmanial activity in THP-1 macrophages; format: cell-based, Leishmania donovani; conditions: intracellular Leishmania donovani in THP1 macrophages, luminescence assay (Supplemental Table 2); read-out: Lum IC50
Method: Luminescent strains, L. donovani LV82 expressing firefly luciferase (a kind gift from Dr. Abhay Satoskar, Ohio State University) and L. mexicana (NR-51210, ATCC) expressing renilla luciferase were used to evaluate the effect of the compounds in intracellular and extracellular conditions. Wild-type L. donovani LV82 (ATCC) were used for Giemsa staining based experiments. All parasites were cultured at 25°C and 5% CO2 in M199 media (Corning) supplemented with 10% FBS, 1% penicillin/streptomycin, and hemin (0.01 mg/mL), and used in experiments up to passage 15.
THP-1 cells were seeded in a 96 well plate (25,000 cells/well) overnight then differentiated with 150 nM phorbol 12-myristate 13-acetate (PMA) over 72 hours (Supplemental Figure 1). […] Briefly, promastigotes of a known cell density were resuspended in RPMI media (with 10% FBS, 1% P/S and 0.05 mM β-mercaptoethanol) and incubated with adhered THP-1 cells over 18 hours. After infection, cells were washed three times with fresh media to remove extracellular promastigotes.
Infected macrophages were then treated with compounds solubilized in DMSO ranging from 0.1-10 μM in concentrations. After 72 hours of treatment, the viability of the amastigotes within macrophages was determined using Promega firefly luminescence assay (Cat E1500) or Pierce Renilla luciferase assay (Cat 16166) for L. donovani and L. mexicana strains, respectively. Briefly, media was removed, and cells were lysed with the assay lysis buffer. The luciferase substrate was then incubated with the lysed cells for 10 min at room temperature and luminescence of live Leishmania was measured in a white opaque 96 well plate using a Biotek plate reader.

THP-1 macrophages = test: Effect of compounds on host cell viability (MTT); format: cell-based; conditions: read-out: 24h LC50; THP1 macrophages, 24-hour incubation, MTT assay (Supplemental Table 2)
Method: The cells were cultured at 37C, 5% CO2 in RPMI medium (ATCC) supplemented with 10% FBS, 1% Penicillin/Streptomycin and 0.05 mM of β-mercaptoethanol. Cells were used in experiments up to passage 10.
Effect of the compounds on THP-1 cell viability measured using thiazolyl blue tetrazolium bromide which measures cell metabolic activity (MTT). THP-1 cells were seeded in a 96 well plate (25,000 cells/well) overnight then differentiated with 150 nM phorbol 12-myristate 13-acetate (PMA) over 72 hours. Macrophages were then treated with compounds resuspended in RPMI media (1- 50 μM) for 24 hours. Media was replaced with thiazolyl blue tetrazolium bromide solubilized in RPMI media (0.5 mg/mL) and incubated at 37°C for 2 hours. The reduced formazan crystals were solubilized with isopropyl alcohol and the absorbance of the resulting solution was measured at 560 nm with a background subtraction at 670 nm. […] This process was repeated with a 72-hr incubation and extended concentration range (1 - 300 μM) for select compounds.

| SMILES | IC50 [1] [µM] | CC50 (THP-1 macrophages) [µM] |
| --- | --- | --- |
| FC(F)(F)c1ccc(-c2ccc(-c3cc(C(F)(F)F)nn3-c3ccc(NC4CNC4)cc3)cc2)cc1 [Compound 3] | 1.8 | 11 |
| CC(=O)c1ccc(-c2ccc(C(F)(F)F)cc2)cc1 [Compound 5] | 2.3 | 13.3 |
| Oc1ccc(CNC2CCN(c3ccc(-n4nc(C(F)(F)F)cc4-c4ccc(-c5ccc(C(F)(F)F)cc5)cc4)cc3)C2)cc1 (stereo not shown) [Compound 18] | 4 | 24.5 |
| FC(F)(F)c1ccc(-c2ccc(-c3cc(C(F)(F)F)nn3-c3ccc(OC4CCNCC4)cc3)cc2)cc1 [Compound 34] | 6 | > 50 |
| FC(F)(F)c1cc(-c2ccc(C#CC3CC3)cc2)n(-c2ccc(N3CCNCC3)cc2)n1 [Compound 42] | 4.2 | 0.7 |
| CC(C)C#Cc1ccc(-c2cc(C(F)(F)F)nn2-c2ccc(N3CCNCC3)cc2)cc1 [Compound 45] | 3.7 | 3.2 |
| FC(F)(F)c1cn(-c2ccc(N3CCNCC3)cc2)c(-c2ccc(Cl)cc2)n1 [Compound 51] | 8.2 | 25.7 |
| CCCNC1CN(c2ccc(-n3nc(C(F)(F)F)cc3-c3ccc(-c4ccc(C(F)(F)F)cc4)cc3)cc2)C1 [Compound 54] | 2.4 | 9.9 |
| FC(F)(F)c1ccc(-c2ccc(-c3cc(C(F)(F)F)nn3-c3ccc(N4CC(NC5CCCC5)C4)cc3)cc2)cc1 [Compound 55] | 8.5 | 29.7 |
| FC(F)(F)c1ccc(-c2ccc(-c3cc(C(F)(F)F)nn3-c3ccc(NC4CCN(C5CCCCC5)C4)cc3)cc2)cc1 (stereo not shown) [Compound 58] | 2.2 | 2.6 |
| NC(Cc1ccccc1)C(=O)N1CCC(Nc2ccc(-n3nc(C(F)(F)F)cc3-c3ccc(-c4ccc(C(F)(F)F)cc4)cc3)cc2)C1 (stereo not shown) [Compound 61] | 2.3 | 6.1 |
| FC(F)(F)c1cc(-c2ccc(-c3ccccc3)cc2)n(-c2ccc(NCCc3ccccc3)cc2)n1 [Compound 62] | > 10 | > 50 |
| CCCCCC(=O)NC1CCN(c2ccc(-n3nc(C(F)(F)F)cc3-c3ccc(-c4ccc(C(F)(F)F)cc4)cc3)cc2)C1 (stereo not shown) [Compound 63] | > 10 | > 50 |
| CCCCCCCCNc1ccc(-n2nc(C(F)(F)F)cc2-c2ccc(-c3ccc(C(F)(F)F)cc3)cc2)cc1 [Compound 64] | > 10 | > 50 |
| FC(F)(F)c1ccc(-c2ccc(-c3cc(C(F)(F)F)nn3-c3ccc(NC4CCNCC4)cc3)cc2)cc1 [Compound 65] | 2.3 | 4 |
| FC(F)(F)c1ccc(-c2ccc(-c3cc(C(F)(F)F)nn3-c3ccc(NC4CC(Cc5ccc(Cl)cc5)C4)cc3)cc2)cc1 (stereo not shown) [Compound 66] | > 10 | > 50 |
| FC(F)(F)c1ccc(-c2ccc(-c3cc(C(F)(F)F)nn3-c3ccc(NCCCCl)cc3)cc2)cc1 [Compound 67] | > 10 | > 50 |
| FC(F)(F)c1ccc(-c2ccc(-c3cc(C(F)(F)F)nn3-c3ccc(NCCCCOc4ccccc4)cc3)cc2)cc1 [Compound 68] | > 10 | 34.7 |
| FC(F)(F)c1ccc(-c2ccc(-c3cc(C(F)(F)F)nn3-c3ccc(N4CCC(NC5CCCCCC5)C4)cc3)cc2)cc1 (stereo not shown) [Compound 69] | 5.5 | 12.4 |
| COc1ccc(C(=O)N2CCC(Nc3ccc(-n4nc(C(F)(F)F)cc4-c4ccc(-c5ccc(C(F)(F)F)cc5)cc4)cc3)C2)cc1OC (stereo not shown) [Compound 70] | > 10 | > 50 |
| O=C(C1CCCCC1)N1CC(Nc2ccc(-n3nc(C(F)(F)F)cc3-c3ccc(-c4ccc(C(F)(F)F)cc4)cc3)cc2)C1 [Compound 71] | > 10 | 8.4 |
| CC(C)(C)OC(=O)NC1CCN(c2ccc(-n3nc(C(F)(F)F)cc3-c3ccc(-c4ccc(C(F)(F)F)cc4)cc3)cc2)CC1 [Compound 72] | > 10 | > 50 |
| NC1CCN(c2ccc(-n3nc(C(F)(F)F)cc3-c3ccc(-c4ccc(C(F)(F)F)cc4)cc3)cc2)CC1 [Compound 73] | 2.7 | 4.8 |
| FC(F)(F)c1ccc(-c2ccc(-c3nc(C(F)(F)F)cn3-c3ccc(N4CCNCC4)cc3)cc2)cc1 [Compound 74] | 2.8 | 6.5 |
| FC(F)(F)c1ccc(-c2ccc(-c3nc(C(F)(F)F)c[nH]3)cc2)cc1 [Compound 75] | > 10 | 48.8 |
| Nc1ccc(-n2cc(C(F)(F)F)nc2-c2ccc(-c3ccc(C(F)(F)F)cc3)cc2)cc1 [Compound 76] | > 10 | – |
| CC(C)(C)OC(=O)NCC(=O)Nc1ccc(-n2cc(C(F)(F)F)nc2-c2ccc(-c3ccc(C(F)(F)F)cc3)cc2)cc1 [Compound 77] | > 10 | > 50 |
| CC(C)(C)OC(=O)NC(Cc1ccccc1)C(=O)Nc1ccc(-n2cc(C(F)(F)F)nc2-c2ccc(-c3ccc(C(F)(F)F)cc3)cc2)cc1 (stereo not shown) [Compound 78] | > 10 | > 50 |

| SMILES | IC50 [1] [µM] | CC50 (THP-1 macrophages) [µM] |
| --- | --- | --- |
| CC(C)(C)c1nc(C(F)(F)F)cn1-c1ccc(Br)cc1 [Compound 329] | – | > 50 |
| FC(F)(F)c1cn(-c2ccc(NC3CCNC3)cc2)c(-c2ccncc2)n1 (stereo not shown) [Compound 333] | – | > 50 |
| O=[N+]([O-])c1ccc(-n2nc(C3CCCCC3)cc2C(F)(F)F)cc1 [Compound 335] | – | > 50 |
| Nc1ccc(-n2nc(C(F)(F)F)cc2C2CCCCC2)cc1 [Compound 338] | – | > 50 |
| CC(C)(C)OC(=O)NCC(=O)Nc1ccc(-n2nc(C(F)(F)F)cc2C2CCCCC2)cc1 [Compound 340] | – | > 50 |
| O=C(CNCc1cccc(F)c1)Nc1ccc(-n2nc(C(F)(F)F)cc2C2CCCCC2)cc1 [Compound 352] | – | 29.3 |
| N#Cc1ccc(CN2CCC(Nc3ccc(-n4nc(C(F)(F)F)cc4C4CCCCC4)cc3)C2)cc1 (stereo not shown) [Compound 358] | – | 13.2 |
| COc1ccc(-n2nc(C(F)(F)F)cc2C2CCCCC2)cc1 [Compound 363] | – | > 50 |
| CC(C)(C)OC(=O)N1CCC(Oc2ccc(-n3nc(C(F)(F)F)cc3C3CCCCC3)cc2)CC1 [Compound 367] | – | > 50 |
| Fc1cccc(CN2CCC(Oc3ccc(-n4nc(C(F)(F)F)cc4C4CCCCC4)cc3)CC2)c1 [Compound 372] | – | > 50 |
| Oc1ccc(CN2CCC(Oc3ccc(-n4nc(C(F)(F)F)cc4C4CCCCC4)cc3)CC2)cc1 [Compound 374] | – | 8.2 |
| Fc1cccc(CN2CCC(Oc3ccc(-n4nc(C(F)(F)F)cc4C4CCCCC4)cc3)C2)c1 (stereo not shown) [Compound 376] | – | > 50 |
| FC(F)(F)c1cc(C2CCCCC2)n(-c2ccc(OC3CCN(Cc4ccccc4)C3)cc2)n1 (stereo not shown) [Compound 378] | – | > 50 |
| N#Cc1ccc(CN2CCC(Nc3ccc(-n4nc(C(F)(F)F)cc4C4CCCCC4)cc3)CC2)cc1 [Compound 389] | – | > 50 |
| CCOC(=O)CNc1ccc(-n2cc(C(F)(F)F)nc2-c2ccc(C(F)(F)F)cc2)cc1 [Compound 403] | – | > 50 |
| O=C(CO)Nc1ccc(-n2cc(C(F)(F)F)nc2-c2ccc(C(F)(F)F)cc2)cc1 [Compound 404] | – | > 50 |
| NC(=O)CNc1ccc(-n2cc(C(F)(F)F)nc2-c2ccc(C(F)(F)F)cc2)cc1 [Compound 405] | – | > 50 |
| NCC(=O)Nc1ccc(-n2ccnc2-c2ccc(C(F)(F)F)cc2)cc1 [Compound 406] | – | > 50 |
| CCCN(CCC)CCc1c[nH]c2ccccc12 [Compound 411] | – | > 50 |
| FC(F)(F)c1cc(C2CCCCC2)n(-c2ccc(N3CCC(OCc4ccccc4)C3)cc2)n1 (stereo not shown) [Compound 412] | – | > 50 |
| N#Cc1ccc(COC2CCN(c3ccc(-n4nc(C(F)(F)F)cc4C4CCCCC4)cc3)C2)cc1 (stereo not shown) [Compound 413] | – | > 50 |
| FC(F)(F)c1cc(C2CCCCC2)n(-c2ccc(N3CCC(OCc4ccccc4)CC3)cc2)n1 [Compound 414] | – | > 50 |
| Fc1cccc(COC2CCN(c3ccc(-n4nc(C(F)(F)F)cc4C4CCCCC4)cc3)C2)c1 (stereo not shown) [Compound 415] | – | > 50 |
| CC(=O)NCCN1CCC(Oc2ccc(-n3nc(C(F)(F)F)cc3C3CCCCC3)cc2)CC1 [Compound 417] | – | 24.4 |
| NCCNC1CCN(c2ccc(-n3nc(C(F)(F)F)cc3C3CCCCC3)cc2)CC1 [Compound 418] | – | 12.6 |
| CC(=O)NCCCOc1ccc(CN2CCC(Oc3ccc(-n4nc(C(F)(F)F)cc4C4CCCCC4)cc3)CC2)cc1 [Compound 430] | – | 16.5 |
| FC(F)(F)c1ccc(-c2cnnn2-c2ccc(NC3CCNCC3)cc2)cc1 [Compound 434] | – | 24.6 |
